This experiment deals with 5-hydroxytryptamine receptor 5A (Mus musculus, UniProt P30966).

In general, Ki refers to the dissociation constant of the complex between target and ligand, obtained from inhibition or displacement. Low readings indicate a stronger hold on the target, high ones a looser hold on the target.

Sequence of 5-hydroxytryptamine receptor 5A (P30966 whole entry): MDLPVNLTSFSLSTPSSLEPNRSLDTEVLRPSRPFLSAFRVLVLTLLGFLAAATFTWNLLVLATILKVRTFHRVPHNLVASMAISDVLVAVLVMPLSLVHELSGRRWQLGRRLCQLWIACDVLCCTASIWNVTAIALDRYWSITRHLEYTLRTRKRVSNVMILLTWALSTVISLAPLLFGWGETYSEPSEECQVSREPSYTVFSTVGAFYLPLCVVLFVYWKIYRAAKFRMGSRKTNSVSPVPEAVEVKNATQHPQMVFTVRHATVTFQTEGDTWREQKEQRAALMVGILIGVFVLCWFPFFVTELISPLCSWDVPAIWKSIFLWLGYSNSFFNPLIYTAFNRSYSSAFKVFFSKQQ

`CCCN(CCC)C1CCc2cccc(O)c2C1` (centres undefined): the affinity corresponds to a Ki of 1.26 µM.

As for `CC[C@@H](CO)NC(=O)[C@@H]1C=C2c3cccc4c3c(cn4C)C[C@H]2N(C)C1`, the Ki is 0.0631 µM. As for `NCCc1ccc(O)c(O)c1`, the figure is above 10 µM; as for `O=C(c1ccc(F)cc1)C1CCN(CCn2c(=O)[nH]c3ccccc3c2=O)CC1` [3-(2-{4-[(4-fluorophenyl)carbonyl]piperidin-1-yl}ethyl)-1,2,3,4-tetrahydroquinazoline-2,4-dione], above 10 µM; as for `CN(C)CCc1c[nH]c2ccc(O)cc12` [3-[2-(dimethylamino)ethyl]indol-5-ol], 1 µM. On to `COc1ccc2[nH]cc(C3=CCNCC3)c2c1` [5-Methoxy-3-(1,2,3,6-tetrahydro-pyridin-4-yl)-1H-indole(RU-24969)], for which the inhibitory constant (Ki) is 0.316 µM. Against the preceding molecule, the Ki is about 3.2-fold lower. As for `O=C(CCCN1CCC2(CC1)C(=O)NCN2c1ccccc1)c1ccc(F)cc1` [8-[4-(4-fluorophenyl)-4-oxidanylidene-butyl]-1-phenyl-1,3,8-triazaspiro[4.5]decan-4-one], the figure is 2.51 µM; as for `CN1C[C@H](C(=O)N[C@]2(C)O[C@@]3(O)[C@@H]4CCCN4C(=O)[C@H](Cc4ccccc4)N3C2=O)C=C2c3cccc4[nH]cc(c34)C[C@H]21` [12'-hydroxy-2'-methyl-5'alpha-(phenylmethyl)ergotaman-3',6',18-trione], 0.00398 µM; as for `CC(C)NCC(O)COc1cccc2[nH]ccc12` (centres undefined) [LB-46], above 10 µM. In turn, `CCN(CC)C(=O)[C@@H]1C=C2c3cccc4[nH]c(Br)c(c34)C[C@H]2N(C)C1` [LSD,2-Bromo] gave a Ki of 0.00199 µM.

Take `NCC(O)c1ccc(O)c(O)c1` (stereo not drawn) [Noradrenaline,(+)]: the Ki was above 10 µM.

In turn, `CNS(=O)(=O)Cc1ccc2[nH]cc(CCN(C)C)c2c1` [Sumax] showed a Ki above 10 µM. `FC(F)(F)c1cccc(N2CCNCC2)c1` [TFMPP] displayed a Ki of 2.51 µM. As for `CSc1ccc2c(c1)C(N1CCN(C)CC1)Cc1ccccc1S2` (centres undefined) [methanesulfonic acid;1-methyl-4-(3-methylsulfanyl-5,6-dihydrobenzo[b][1]benzothiepin-5-yl)piperazine], the inhibitory constant (Ki) came to 0.1 µM.

The values above are taken from BindingDB's records for PubMed 1464308 (Cnrs, 1992).
